Experimental data from patent US4091115A, “7-Amino-benzocycloheptenes” (Roussel Uclaf, priority 1975, dated 1978).
Structures can show the parent of a compound that is named as a salt.

Columns and labels:
Acute toxicity in mice = format: in vivo; settings: mouse, in vivo, ip, intraperitoneal
Experimental: (§1) The LD50 dose which kills 50% of mice after intraperitoneal administration of the tested compounds was determined 48 hours later and the results are reported in Table IV.

[1] = tested on: uptake of 14 C-5HT in synaptosomes; experiment: Inhibition of Serotonine uptake in vivo (synaptosomes from treated rats); set-up: species or system female rats 19 to 21 days old; key: the activity was expressed in increasing number of + signs; ++: the activity was expressed in increasing number of + signs; +++: the activity was expressed in increasing number of + signs; settings: i.p. 5 to 20 mg/kg; brain removed after 30 minutes
Experimental: The tested products were intraperitoneally administered to groups of female rats 19 to 21 days old at doses of 5 to 20 mg/kg. After 30 minutes, the brain was removed and synaptosomes were prepared and placed in an incubator in the presence of 14 C-5HT as indicated in the previous test.

mice = experiment: Acute toxicity in mice; format: in vivo; settings: intraperitoneal, 48 hours
Experimental: as §1

effects of 5-HTP = experiment: Potentiation of effects of 5-HTP in mice; format: in vivo; settings: Mus musculus, 1 h; i.p. one hour before 5-HTP 200 mg/kg i.p.; trembling observed for an hour; read-out: MAD (minimal active dose), potentiation of 5-HTP effects
Experimental: The administration of 5-hydroxytryptophane (5-HTP) to mice pretreated with an antidepressant induces in the animals a particular behavior, namely the appearance of trembling. The tested products were administered intraperitoneally at increasing doses one hour before the intraperitoneal administration of 5-HTP at an dose of 200 mg/kg. The symptoms were observed every 15 minutes for an hour to determine the miminal active dose (MAD) of the test product and the results are reported in Table II.

[2] = tested on: serotonine (5HT) uptake in synaptosomes; experiment: Inhibition of Serotonine uptake in vitro (brain synaptosomes); format: biochemical, female rat 19 to 21 days old; settings: rat whole brain synaptosomes, 37° C, 5 minutes, 14 C-5HT 10^-7 M; read-out: I.C. 50, Test in vitro (inhibition of 14 C-5HT uptake)
Experimental: The inhibition of serotonine (5HT) uptake was measured in impure synaptosomes prepared from the entire brain of a female rat 19 to 21 days old using the technique of Kannengiesser et al [Biochemical Pharmacology, Vol. 22, (1973) p. 73]. Diverse concentrations of the products were placed in an incubator with the preparation at 37° C for 5 minutes in the presence of 14 C-5HT at a concentration of 10^-7 M. The 50% inhibiting concentration (IC50), dose which inhibits by 50% the uptake of 14 C-5HT in the synaptosomes was determined graphically and the IC50 dose for the compounds is reported in Table V.

effects of L-dopa = experiment: Potentiation of effects of L-dopa in mice pretreated with iproniazide; format: in vivo, male mice; settings: Mus musculus, ip; i.p. one hour before L-dopa 100 mg/kg i.p.; iproniazide 75 mg/kg i.p. 18 hours before; read-out: ED50, dose which potentiates by 50% the L-dopa effects
Experimental: The administration of L-dopa to mice pretreated 18 hours previously with iproniazide produced certain number of symptoms; muscular hypertonically, hyperactivity, agitation, crying, aggressiveness, salivation and exophthalmy. The intensity of these effects is potentiated by administration of an antidepressant one hour before the administration of L-dopa. Male mices received intraperitoneally 75 mg/kg of iproniazide 18 hours before the start of the test and the tested product was intraperitoneally administered in aqueous solution in increasing doses. One hour later, L-dopa was intraperitoneally administered at a dose of 100 mg/kg and the different symptoms were observed 15 and 30 minutes later. They were evaluated on a scale of 0 to 3 for each animal and the totals for each dose were determined.

[3] = tested on: effects of monoamine oxidase inhibitor (nialamide); experiment: Potentiation of effects of monoamine oxidase inhibitor (nialamide) in mice; format: in vivo; set-up: key: Potentiation of the effects of nialamide for the tested product was expressed in increasing number of + signs for a determined dose in mg/kg; ++: Potentiation of the effects of nialamide for the tested product was expressed in increasing number of + signs for a determined dose in mg/kg; +++: Potentiation of the effects of nialamide for the tested product was expressed in increasing number of + signs for a determined dose in mg/kg; settings: nialamide 100 mg/kg i.p. 30 minutes before, actimetry 6 hours
Experimental: The administration of a monoamine oxidase inhibitor to mice induces a hyperactive movement of the animals which is able to be potentiated by an antidepressant. Using the procedure of Carlsson et al [Brain Research, Vol. 12 (1969), p. 456], a dose of 100 mg/kg of nialamide was intraperitoneally administered to mice 30 minutes before the intraperitoneal administration of the tested product and the values of actimetric measurements were recorded every 30 minutes for 6 hours. Potentiation of the effects of nialamide for the tested product was expressed in increasing number of + signs for a determined dose in mg/kg.

SMILES | LD50 at 48 h (Acute toxicity in mice) [mg/kg] | Test in vivo (inhibition of 14 C-5HT uptake) [1] | LD50 (mice) [mg/kg] | minimal effective dose (effects of 5-HTP) [mg/kg] | IC50 [2] [nM] | ED50 (effects of L-dopa) [mg/kg] | Potentiation of nialamide ([3]; 1 mg/kg i.p.) | Potentiation of nialamide ([3]; 20 mg/kg i.p.) | Potentiation of nialamide ([3]; 1-5 mg/kg i.p.) | Potentiation of nialamide ([3]; 5 mg/kg i.p.)
CN(C)C1CCc2ccccc2C(c2ccccc2)C1 (single isomer, unassigned) [Example 4, 7-dimethylamino-5-phenyl-6,7,8,9-tetrahydro [5H] benzocycloheptene hydrochloride] | 50 |  |  |  |  |  |  |  |  | 
CN(C)C1CCc2ccccc2C(c2ccccc2)C1 (single isomer, unassigned) [Example 5, 7-dimethylamino-5-phenyl-6,7,8,9-tetrahydro [5H] benzocycloheptene hydrochloride] |  | +++ | 50 | 10 | 150 | 2 | + | +++ |  | 
CN(C)C1C=Cc2ccccc2CC1 (stereo not shown) [Example 1, 7-dimethylamino-6,7-dihydro [5H] benzocycloheptene hydrochloride] | 75 | ++ |  | 20 | 510 | < 5 |  | ++ |  | 
CN(C)C1CCc2ccccc2CC1 [Example 2, 7-dimethylamino-6,7,8,9-tetrahydro [5H] benzocycloheptene hydrochloride] | 100 |  |  |  |  | 5 |  | +++ | + | 
CN(C)C1C=C(c2ccccc2)c2ccccc2CC1 (stereo not shown) [Example 3, 7-dimethylamino-9-phenyl-6,7-dihydro [5H] benzocycloheptene hydrochloride] | 100 |  |  |  |  | 2 |  |  |  | 
CNC1C=Cc2ccccc2CC1 (stereo not shown) [Example 6, 7-methylamino-6,7-dihydro [5H] benzocycloheptene hydrochloride] | 75 | ++ |  | 5 | 1900 | 10 |  | +++ |  | ++
CNC1CCc2ccccc2CC1 [Example 7, 7-methylamino-6,7,8,9-tetrahydro [5H] benzocycloheptene hydrochloride] | 100 |  |  |  |  | 10 |  | ++ |  | +
CNC1C=C(c2ccccc2)c2ccccc2CC1 (stereo not shown) [Example 8, 7-methylamino-9-phenyl-6,7-dihydro [5H] benzocycloheptene hydrochloride] | 50 |  |  |  |  | 5 |  |  |  | 
CNC1CCc2ccccc2C(c2ccccc2)C1 (stereo not shown) [Example 9, 7-methylamino-5-phenyl-6,7,8,9-tetrahydro [5H] benzocycloheptene hydrochloride] | 50 |  |  | 20 |  | 5 |  |  |  | 
CNC1C=Cc2cc(Cl)ccc2CC1.Cl (stereo not shown) [Example 10 (2-chloro derivative), 2-chloro-7-methylamino-6,7-dihydro [5H] benzocycloheptene hydrochloride] | 75 | +++ |  | 10 | 350 | < 5 | +++ |  |  | +++
CNC1C=Cc2cccc(Cl)c2CC1 (stereo not shown) [Example 11, 4-chloro-7-methylamino-6,7-dihydro [5H] benzocyclopheptene hydrochloride] | 75 | + |  | 20 | 400 | 20 |  | +++ |  | +
CCNC1C=Cc2ccccc2CC1 (stereo not shown) [Example 12, 7-ethylamino-6,7-dihydro [5H] benzocycloheptene hydrochloride] | 75 |  |  | 20 |  | 10 |  |  |  | 
CN1CCN(C2C=Cc3ccccc3CC2)CC1 (stereo not shown) [Example 13, 7-(4-methylpiperazin-1-yl)-6,7,-dihydro [5H] benzocycloheptene difumarate] | 250 |  |  | 50 |  | 20 |  | ++ |  | 
C=CCNC1C=Cc2ccccc2CC1 (stereo not shown) [Example 14, 7-allylamino-6,7-dihydro [5H] benzocycloheptene hydrochloride] | 150 |  |  | 50 |  | 20 |  | ++ |  | 
